The experiment addresses T1, human 5-HT6 receptor (Homo sapiens, UniProt P50406).
T1 construct: host or cells: CHO-K1 cells, stably transfected; membranes prepared in house
Kind of experiment: Human 5-HT6 Receptor Binding Assay ([3H]LSD displacement, scintillation beads). As to conditions: membranes of CHO-K1 cells with recombinant human 5-HT6, 4 nM [3H]LSD; Table 1, class symbols; read-out: h5-HT6 (Ki).

T1 sequence (P50406 whole entry): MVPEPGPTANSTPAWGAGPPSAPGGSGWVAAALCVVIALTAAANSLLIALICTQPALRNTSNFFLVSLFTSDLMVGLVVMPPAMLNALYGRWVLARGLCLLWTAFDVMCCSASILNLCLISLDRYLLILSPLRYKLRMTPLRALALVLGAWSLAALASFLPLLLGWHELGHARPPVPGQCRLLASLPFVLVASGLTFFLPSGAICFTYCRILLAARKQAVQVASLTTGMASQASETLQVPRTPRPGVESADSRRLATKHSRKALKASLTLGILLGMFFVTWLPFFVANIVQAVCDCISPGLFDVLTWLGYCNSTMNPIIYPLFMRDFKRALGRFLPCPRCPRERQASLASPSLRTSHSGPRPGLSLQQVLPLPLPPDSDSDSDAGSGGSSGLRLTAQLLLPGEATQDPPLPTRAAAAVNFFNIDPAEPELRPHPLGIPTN

By Ki is commonly meant a measure of affinity in units of concentration, obtained from inhibition or displacement. As to `O=S(=O)(c1cccc(Cl)c1)c1ccc2c3c(oc2c1)CNCC3` [Example 340, 7-[(3-chlorophenyl)sulfonyl]-1,2,3,4-tetrahydro[1]benzofuro[2,3-c]pyridine], the Ki was less than 500 nM.
On to `Cc1c(S(=O)(=O)Oc2ccc3c(c2)OC2CNCCC32)sc2ccc(Cl)cc12` (centres unmarked) [Example 687], for which the Ki is less than 500 nM.
The result for `COc1ccc(S(=O)(=O)c2ccc3c(c2)OC2CNCCC32C)cc1` (racemic) [Example 5, 7-[(4-methoxyphenyl)sulfonyl]-4a-methyl-1,2,3,4,4a,9a-hexahydro[1]benzofuro[2,3-c]pyridine] reads 500 to 1000 nM; that for `O=S(=O)(c1cccc(Cl)c1)c1ccc2c3c(oc2c1)C(CCC(F)(F)F)NCC3` (centres unmarked) [Example 522], less than 500 nM; that for `CC(C)c1ccc(S(=O)(=O)Nc2ccc3c(c2)C2CCNCC2O3)cc1` (centres unmarked) [Example 824], greater than 1000 nM.
In the case of `O=S(=O)(c1ccc2c(c1)OC1CNCCC21)c1cccc(Cl)c1Cl` (centres unmarked) [Example 156] it was less than 500 nM.
In the case of `Cc1ccc(S(=O)(=O)Oc2ccc3c(c2)C2CCNCC2O3)cc1F` (centres unmarked) [Example 709], the Ki fell in the range of 500 to 1000 nM.
As for `Cc1c(OCc2cccnc2)cccc1S(=O)(=O)c1ccc2c(c1)OC1CNCCC21` (centres unmarked) [Example 566], the Ki was less than 500 nM.
The result for `COCC1(COC)NCCc2c1oc1cc(S(=O)(=O)c3cccc(F)c3)ccc21` [Example 39, 7-[(3-fluorophenyl)sulfonyl]-1,1-bis(methoxymethyl)-1,2,3,4-tetrahydro[1]benzofuro[2,3-c]pyridine] reads less than 500 nM.
On to `COc1cccc(S(=O)(=O)Oc2ccc3c(c2)C2CCNCC2O3)c1` (centres unmarked) [Example 708], for which the Ki lay within 500 to 1000 nM.
Turning to `O=S(=O)(c1ccc2c(c1)OC1CNCCC21)c1cc(F)cc(F)c1F` (centres unmarked) [Example 386], the Ki is less than 500 nM.
For the molecule `O=S(=O)(Oc1ccc2c(c1)OC1CNCCC21)c1ccccc1C(F)(F)F` (centres unmarked) [Example 674], the Ki was less than 500 nM.
Turning to `Cc1cc(C)c(S(=O)(=O)Oc2ccc3c(c2)OC2CNCCC32)c(C)c1` (centres unmarked) [Example 656], the Ki is less than 500 nM.
As to `Cc1ccnc(S(=O)(=O)c2ccc3c(c2)OC2CNCCC32C)n1` (racemic) [Example 7, 4a-methyl-7-[(4-methylpyrimidin-2-yl)sulfonyl]-1,2,3,4,4a,9a-hexahydro[1]benzofuro[2,3-c]pyridine], the Ki was greater than 1000 nM.
Regarding `O=S(=O)(Nc1ccc2c(c1)C1CCNCC1O2)c1ccc(Cl)cc1` (centres unmarked) [Example 823], the Ki is less than 500 nM.
For the molecule `O=S(=O)(c1cccc(Cl)c1)c1ccc2c(c1)OC1CNCCC21` (centres unmarked) [Example 112], the Ki is less than 500 nM.
Consider `COc1c(F)cc(F)cc1S(=O)(=O)c1ccc2c(c1)OC1CNCCC21` (centres unmarked) [Example 463], for which the Ki was less than 500 nM.
Consider `O=S(=O)(c1cccc(F)c1)c1ccc2c3c(oc2c1)C(C(F)(F)F)NCC3` (centres unmarked) [Example 510], for which the Ki was less than 500 nM.
For `CC1(C)CNC2(CCOC2)c2oc3cc(S(=O)(=O)c4cncc(Cl)c4)ccc3c21` (centres unmarked) [Example 456], the Ki was less than 500 nM.
As for `O=S(=O)(c1cc(F)cc(Cl)c1)c1ccc2c(c1)OC1CNCCC21` (centres unmarked) [Example 163], the Ki was less than 500 nM.
For `CC(C)C(=O)NCC1(C)NCCc2c1oc1cc(S(=O)(=O)c3cccc(F)c3)ccc21` (centres unmarked) [Example 491, N-[7-(3-Fluoro-benzenesulfonyl)-1-methyl-1,2,3,4-tetrahydro-benzofuro[2,3-c]pyridin-1-ylmethyl]-isobutyramide], the Ki was less than 500 nM.
In the case of `COCC1(C)NCCc2c1oc1cc(S(=O)(=O)c3cccc(F)c3)ccc21` (racemic) [Example 49, 7-[(3-fluorophenyl)sulfonyl]-1-(methoxymethyl)-1-methyl-1,2,3,4-tetrahydro[1]benzofuro[2,3-c]pyridine], the Ki is less than 500 nM.
`COc1cc(OC)cc(S(=O)(=O)c2ccc3c(c2)OC2CNCCC32)c1` (centres unmarked) [Example 480]: the Ki is less than 500 nM.
Turning to `O=S(=O)(c1cccc(Cl)c1)c1ccc2c3c(oc2c1)C(C1CC1)NCC3` (centres unmarked) [Example 503], the Ki was less than 500 nM.
Consider `O=S(=O)(c1ccc2c(c1)OC1CNCCC21)c1cccc(Cl)c1Cl` (centres unmarked) [Example 123], for which the Ki was less than 500 nM.
For the molecule `O=S(=O)(c1ccc2c(c1)OC1CNCCC21)c1ccccc1-c1ccccc1` (centres unmarked) [Example 152], the Ki is less than 500 nM.
As for `O=S(=O)(c1ccc2c(c1)OCCO2)c1cccc2c1OC1CNCCC21` (centres unmarked) [Example 185], the Ki is less than 500 nM.
`O=S(=O)(c1cccc(Cl)c1)c1ccc2c3c(oc2c1)CN(CCc1ccccc1)CC3` [Example 602]: the Ki was less than 500 nM.
`CCN1CCC2(C)c3cc(OS(=O)(=O)Cc4ccccc4)ccc3OC2C1` (centres unmarked) [Example 810, 2-Ethyl-4a-methyl-1,2,3,4,4a,9a-hexahydro[1]benzofuro[2,3-c]pyridin-6-yl phenylmethanesulfonate]: the Ki is greater than 1000 nM.
Turning to `O=S(=O)(Oc1ccc2c(c1)C1CCNCC1O2)c1ccc(-c2ccon2)s1` (centres unmarked) [Example 742], the inhibitory constant (Ki) is less than 500 nM.
Regarding `O=S(=O)(c1ccc2c(c1)C1CCNCC1O2)c1ccccc1Cl` (centres unmarked) [Example 169], the Ki fell in the range of 500 to 1000 nM.
Consider `CC12CCN(C3CCCC3)CC1Oc1ccc(OS(=O)(=O)Cc3ccccc3)cc12` (centres unmarked) [Example 806], for which the Ki is greater than 1000 nM.
With `O=S(=O)(Oc1ccc2c(c1)OC1CNCCC21)c1ccc(-c2ccccc2)cc1` (centres unmarked) [Example 681], the Ki is less than 500 nM.
In the case of `COc1cc(F)cc(S(=O)(=O)c2ccc3c(c2)OC2CNCCC32)c1` (centres unmarked) [Example 407], the Ki is less than 500 nM.
Regarding `Cc1ccc(S(=O)(=O)Oc2ccc3c(c2)C2CCNCC2O3)cc1` (centres unmarked) [Example 700], the Ki was less than 500 nM.
On to `O=S(=O)(c1ccc2c(c1)OCCO2)c1ccc2c(c1)OC1CNCCC21` (centres unmarked) [Example 119], for which the Ki was less than 500 nM.
On to `O=S(=O)(c1cc(F)cc(OCC(F)(F)F)c1)c1ccc2c(c1)OC1CNCCC21` (centres unmarked) [Example 415], for which the Ki was less than 500 nM.
For `[O-][S+](c1ccc2oc3c(c2c1)CCNC3)c1cccnc1OCC(F)(F)F` (centres unmarked) [Example 447], the Ki was greater than 1000 nM.
The result for `CC1(C)NCCc2c1oc1cc(S(=O)(=O)c3ccc(F)c(F)c3)ccc21` [Example 290] reads less than 500 nM.
Regarding `CN(C)C(=O)c1c(F)cccc1S(=O)(=O)c1ccc2c(c1)OC1CNCCC21` (centres unmarked) [Example 476], the Ki is greater than 1000 nM.
As to `COc1cncc(S(=O)(=O)c2ccc3c4c(oc3c2)C2(CCOC2)NCC4(C)C)c1` (centres unmarked) [Example 454], the Ki is less than 500 nM.
For `O=S(=O)(c1cccc(OCc2ccccn2)c1)c1ccc2c(c1)OC1CNCCC21` (centres unmarked) [Example 562], the Ki was less than 500 nM.
For the molecule `Cc1c(S(=O)(=O)Nc2ccc3c(c2)C2CCNCC2O3)sc2ccc(Cl)cc12` (centres unmarked) [Example 830], the Ki was less than 500 nM.
For the molecule `CC1NCCc2c1oc1cc(S(=O)(=O)c3cccc(C(F)(F)F)c3)ccc21` (centres unmarked) [Example 237], the Ki is less than 500 nM.
For the molecule `CC1OCCC12NCCc1c2oc2cc(S(=O)(=O)c3cccc(F)c3)ccc12` (single isomer, unassigned) [Example 57, 7-[(3-Fluorophenyl)sulfonyl]-2′-methyl-3,4,4′,5′-tetrahydro-2H-spiro[1-benzofuro[2,3-c]pyridine-1,3′-furan]], the Ki was less than 500 nM.
In the case of `CC(C)Oc1ccccc1S(=O)(=O)c1ccc2c(c1)OC1CNCCC21` (centres unmarked) [Example 419] it was less than 500 nM; in that of `CC(C)Oc1cc(F)cc(S(=O)(=O)c2ccc3c(c2)OC2CNCCC32C)c1` (centres unmarked) [Example 427], less than 500 nM.

(Values after patent US8765779B2, “Tricyclic derivatives and their pharmaceutical use and compositions” (Cephalon, Inc., priority 2009, dated 2014).)
